Structures can show the parent of a compound that is named as a salt. Where two headings read alike, the source gives them in different places.

The test system of data set [1] is liver metastases. Conditions: hepatic arterial infusion; no substantial effect on survival; cited from earlier work.
Data set [2] concerns metastatic colorectal cancer. The note with it: cited from earlier work.
Data set [3] relates to murine leukemias, solid murine and human tumor models. The data set is described as follows: In vivo antitumor potency, optimal i.v. dose.
Data set [4] concerns tumor cells resistant to anthracyclines and presenting the mdr phenotype. The data set is described as follows: Activity in vitro and in vivo on resistant tumor cells. The source says: MMDX is active in vitro and in vivo on tumor cells resistant to anthracyclines and presenting the mdr phenotype, this last mechanism being recognized to occur also in man.
A well known pathway of the metabolic transformation of the antitumor anthracyclines in mammals is the side-chain carbonyl group reduction, giving the corresponding 13-dihydro derivative.

The nature of data set [5]: Lethal dose (LD10) in rats. The class given is in vivo. An excerpt: (§1) The starting dose was 100 mcg/m^2,corresponding to one third of the LD10 in rats.
The test system of data set [6] is HCC. As to the kind of experiment: Phase I dose-finding study of MMDX via the hepatic artery (IHA): antitumor activity in liver. The format is in vivo, human. How it is done:
(§2) A single arm, multicentre, dose-finding Phase I study of MMDX (PNU 152243) administered as a brief infusion of 30 minutes every 4 weeks via the hepatic artery (IHA) to adult patients either with hepatic metastatic colorectal cancer who have progressed after receiving intravenous chemotherapy or intrahepatic 5-fluoruracil chemotherapy, or with previously untreated primary hepatocellular carcinoma or cholangiocarcinoma involving the liver was carried out. Their disease was confined to the liver, at the time of trial entry.
Antitumor activity was documented in this study.
(§3) On a total of 23 registered patients, 18 received intra hepatic artery (IHA) administration of MMDX.
(§4) Doses tested ranged from 100 mcg/m^2 to 800 mcg/m^2.
(§5) Results are available on 13 patients: 3 patients (6 cycles) at 100 mcg/m^2, 3 patients (12 cycles) at 200mcg/m^2, 3 patients (4 cycles) at 400 mcg/m^2, 3 patients (10 cycles) at 600 mcg/m^2 and 1 patient (3 cycles) at 800 mcg/m^2.

Data set [7] is described as follows: Phase I dose-finding study of MMDX via the hepatic artery (IHA): toxicity. The class given is in vivo, human. The note with it: for thrombocytopenia (grade): considered tumor related (HCC patient); for anemia (max. grade): one patient. The method, then:
as §2
The primary goal of this study was the determination of Maximal Tolerated Dose (MTD) and Dose-Limiting Toxicities (DLTs)of MMDX when administered via the hepatic artery.
as §1, §3, §4, §5

The subject of data set [8] is liver metastases. As to the kind of experiment: Phase I and phase Ib studies by intravenous route: response in liver and toxicity. The class given is in vivo, human. The note with it: i.v. The source says: The expectation that MMDX is effective in liver neoplasms comes from the findings of phase I and phase Ib studies conducted by intravenous route, where, out of 30 patients evaluable for response in liver, 5 experienced regressions of liver metastases. […] Tumor shrinkage occurred at doses of 1250 and 1500 mcg/m^2 i.v..

A short description of data set [9]: Lipophilicity.
In data set [10] the test system is liver metastases. As to the kind of experiment: Phase II study by i.v. route in breast cancer patients with liver metastases. The class given is in vivo, human. The note with it: 1500 mcg/m^2 i.v., six patients treated.
For data set [11], the system named is liver metastases from M5076 murine fibrosarcoma. The data set is described as follows: Liver metastases from M5076 murine tumor. The format is in vivo. The source says:
(§6) The high lipophilicity of the molecule, which confers to the compound the ability to reach high intracellular concentrations and is most likely one of the reasons of its efficacy on resistant models, makes it effective also after oral administration. The oral antitumor efficacy of MMDX has been examined in a panel of different tumor types with various schedules of administration. […] In these models, the effective oral doses of MMDX are 1.3-2 fold higher than the effective i.v. doses. […] This might be a reflection of a different behaviour of the drug, due to first pass effect to the liver.
(§7) Strong evidence of antitumor efficacy in liver is also supported by preclinical data. […] This specific effect on liver metastases is probably due to metabolite(s) produced by liver enzymes. This hypothesis is reinforced by several results showing MMDX being activated in vitro by liver microsomes to a highly cytotoxic product. This metabolic conversion is believed to occur also in humans.

Data set [12] concerns panel of different tumor types. The data set is described as follows: Oral antitumor efficacy in a panel of tumor types. The format is in vivo.
Description: as §6

Data set [13] is described as follows: Cytotoxic activity in vitro in the presence of liver microsomes. The class given is cell-based. The note with it: mouse, rat and human liver microsomes.
Description: as §7
A general note: Microsomes from liver hold many membrane-bound enzymes, among them those of drug oxidation.

Setting [14] is: systemic, metastatic colorectal cancer.
Setting [15] is: 400 mcg/m^2 IHA, one patient (1 cycle).
Where [16] appears, read: 600 mcg/m^2 IHA, 1 patient (2 cycles).
Setting [17] is: 800 mcg/m^2 IHA, 1 patient (1 cycle).
Where [18] appears, read: after failure of 5-FU leucovorin.

For `O=c1[nH]c(=O)n([C@H]2C[C@H](O)[C@@H](CO)O2)cc1F` [FUDR, 5-fluorodeoxyuridine], the response rate entry in data set [1] is recorded as “up to 50%”.

As for 5-fluoruracil (5-FU) plus folinic acid, in data set [2] (setting [14]), the overall survival entry is “around 12 months” and the response rate is listed as 20%.

Take `O=c1[nH]cc(F)c(=O)[nH]1` [5-FU, 5-fluoruracil]: in [1], the response rate entry is “up to 50%”.

On to `COc1cccc2c1C(=O)c1c(O)c3c(c(O)c1C2=O)C[C@@](O)(C(=O)CO)C[C@@H]3O[C@H]1C[C@H](N2CCO[C@H](OC)C2)[C@H](O)[C@H](C)O1` [MMDX, Methoxymorpholino doxorubicin], for which the antitumor activity result in data set [3] (after i.p., i.v. or oral administration, murine leukemias, solid murine and human tumor models) was “good antitumor activity”. For the same compound, in [3] (in vivo, i.v.), the “optimal i.v. dose, fold less than that of doxorubicin” value is “at least 80 fold”. Also, in data set [4] (in vitro and in vivo), the “activity on tumor cells resistant to anthracyclines (mdr phenotype)” value was “active”. The cross-resistance entry in data set [4] (tumor cells resistant to L-PAM or cDDP, or to Topoisomerase II inhibitors (at-mdr)) is listed as “No cross-resistance”. For the same compound, the “one third of the LD10 in rats” value in data set [5] was 100 mcg/m^2. In addition, the “reduction of measurable liver disease (NMR, overall 17.75 cm^2 at entry)” value in data set [6] (200 mcg/m^2 IHA, first HCC patient, after 2 IHA cycles) was “more than 86%”. Besides, the tumor response entry in [6] (200 mcg/m^2 IHA, first HCC patient, after 2 IHA cycles, confirmed after the fourth) is given as “Partial Response (PR)”; in [6] (200 mcg/m^2 IHA, first HCC patient, after the sixth IHA cycle), “Complete Response (CR)”; in data set [6] (800 mcg/m^2 IHA, third HCC patient, after 3 cycles), “minor response”. Moreover, the “number of objective tumor responses in liver” value in [6] (200 mcg/m^2 IHA, patients with HCC) is on record as “Two”. Besides, the “decrease of the bigger lesion in diameter (6 cm at baseline, Ctscan)” value in data set [6] (200 mcg/m^2 IHA, second HCC patient, after the third IHA cycle) is recorded as 50%. Further, the “leucopenia (grade)” value in [7] (100 mcg/m^2 IHA, 1 patient (1 cycle)) is recorded as 1; in [7] (200 mcg/m^2 IHA, 1 patient (1 cycle)), 1; in data set [7] (400 mcg/m^2 IHA, 1 patient (1 cycle)), 1. Also, the “fatigue (grade)” value was 1-2 in data set [7] (100 mcg/m^2 IHA, 2 patients (3 cycles)); 2 in data set [7] (200 mcg/m^2 IHA, 1 patient (2 cycles)); 2 in data set [7] (setting [16]); 1 in data set [7] (setting [17]). The vomiting result in data set [7] (100 mcg/m^2 IHA, one out of three patients (1 cycle)) was “mild”. Also, the “thrombocytopenia (grade)” value in data set [7] (200 mcg/m^2 IHA, 1 patient (3 cycles)) is given as 1-2; in data set [7] (600 mcg/m^2 IHA, 1 patient (1 cycle)), 1-2. For the same compound, the “increase in transaminases (grade), attributable to the study drug” value in data set [7] (200 mcg/m^2 IHA, 2/3 patients) is on record as 1-2; in data set [7] (400 mcg/m^2 IHA, 2/3 patients) it was 1-2; in data set [7] (600 mcg/m^2 IHA, 2 out of 3 patients) it was 1-2. The “nausea (grade)” value in data set [7] (200 mcg/m^2 IHA, 2 patients (2 cycles)) was 2; in [7] (400 mcg/m^2 IHA, 2 patients (2 cycles)) it was 2-3; in [7] (600 mcg/m^2 IHA, 2 patients (2 cycles)) it was 1-2; in data set [7] (setting [17]) it was 1. For the same compound, the “vomiting (grade)” value in [7] (200 mcg/m^2 IHA, 2 patients (3 cycles)) was 1-2; in data set [7] (setting [15]) it was 2. In addition, the “anemia (max. grade)” value in [7] (200 mcg/m^2 IHA), in data set [7] (600 mcg/m^2 IHA) and in data set [7] (800 mcg/m^2 IHA) was at most 1 in each case. Also, the “hyperglycemia (grade)” value in data set [7] (200 mcg/m^2 IHA, two patients (one diabetic, persisting from baseline; one post prandial)) worked out at 3. Further, the alopecia result in [7] (setting [15]) and in data set [7] (setting [16]) was “mild” throughout. Besides, the “local pain at porth-a-cath site” value in data set [7] (setting [15]) was “Mild”. The “transaminase elevation (grade)” value in [7] (400 mcg/m^2 IHA, third patient, probably due to the IHA technology applied) is 2-3; in [7] (800 mcg/m^2 IHA, the one patient treated), 3. Besides, the “fever (grade)” value in data set [7] (setting [17]) was found to be 1. Moreover, the “mucositis (grade)” value in [7] (setting [17]) is reported as 1. In addition, in [7] (IHA), the “time of maximum transaminases elevation” value is listed as “during the first week after treatment”. The “most frequently observed adverse events attributable to the study drug” value in data set [7] (IHA, 100-800 mcg/m^2) was “nausea, vomiting and fatigue”. Also, the “other grade 3-4 non-hematological events” value in [7] (IHA, 100-800 mcg/m^2) is “No other grade 3-4 events”. The AGC result in data set [7] (IHA, all doses reported) is recorded as “always normal”. The “bilirubinemia increases (grade)” value in data set [7] (IHA, starting from 100 mcg/m^2, not considered due to the study drug) is 2. In [8] (phase I and Ib), the main toxicities result was “nausea and vomiting (requiring intravenous antiemetic treatment), myelosuppression and transient elevations in transaminases”. Further, the “liver finding at autopsy” value in data set [8] (additional patient with colorectal cancer and multiple liver metastases at entry, after the first cycle) is given as “no evidence of liver metastases”. In data set [8] (out of 30 patients evaluable for response in liver, shrinkage at 1250 and 1500 mcg/m^2), the “number of patients with regressions of liver metastases” value was 5. Also, the “regression of liver lesions” value in [8] (two patients with colorectal cancer, after 3 cycles) is on record as under 50%. The “regression in liver lesions” value in [8] (two patients with renal cancer, after 3 cycles) is “greater than 50%”. Besides, the lipophilicity result in [9] was “high”. Further, the “number of complete responses in liver lesions” value in data set [10] is recorded as 1. For the same compound, the “number of minor responses in liver lesions” value in data set [10] was determined as 1. Also, the “number of partial responses in liver lesions” value in data set [10] (one not confirmed four weeks apart) is listed as 3. In addition, in [11] (administered orally, same M5076 model), the “efficacy on the liver metastases versus the solid primary” value is “more effective on the liver metastases than on the solid primary”. In data set [11] (injectable formulation), the “efficacy relative to the oral formulation” value was “less effective”. Besides, the “survival time (best result)” value in data set [11] (oral formulation, daily for 5 days) is on record as “doubling of survival time”. Also, in data set [12] (all animal models examined, various schedules), the “oral antitumor activity compared to intravenous (i.v.) administration” value is listed as “comparable”. For the same compound, in data set [12] (animal models), the “effective oral doses, fold higher than the effective i.v. doses” value is reported as 1.3-2 fold. The “cytotoxic activity in the presence of liver microsomes” value in data set [13] is recorded as “increased”.

For `COc1cccc2c1C(=O)c1c(O)c3c(c(O)c1C2=O)CC(O)(C(O)CO)CC3OC1CC(N2CCOC(OC)C2)C(O)C(C)O1` (stereo not drawn) [reduced derivative of MMDX], the “active doses, fold higher as compared to the parent drug” value in data set [4] (doxorubicin-resistant models, in vitro and in vivo) came to 10 fold. The “activity against doxorubicin-resistant models” value in data set [4] (in vitro and in vivo) is on record as “maintains activity”.

Regarding `CCc1c2c(nc3ccc(OC(=O)N4CCC(N5CCCCC5)CC4)cc13)-c1cc3c(c(=O)n1C2)COC(=O)[C@]3(O)CC` [Irinotecan hydrochloride trihydrate], in data set [2] (setting [18]), the median survival time entry is reported as “approximately 9 months” and the response rate is 15%.

Source of the values: patent EP1112066B1, “USE OF METHOXYMORPHOLINO DOXORUBICIN FOR THE TREATMENT OF A LIVER TUMOR” (Pharmacia Italia S.p.A., priority 1998, dated 2000).
